From EPA's ToxValDB 9.5 come the findings set out here.

This data set has as its system Rattus norvegicus. The following applies: oral.
Where [1] appears, read: short-term, duration: 28 days, gavage, M, Sprague-Dawley, Clinical Observation: Diarrhea + Body Weight Changes: decrease + Food Consumption: decrease + Urinalysis: Color, Brown + Hematology: RET ….
Setting [2] is: short-term, duration: 28 days, gavage, F, Sprague-Dawley, Food Consumption: decrease + Hematology: RBC decrease, Hct decrease1000 Hgb decrease1000 Plt increase, PT increase, APTT increase, Ret ….
The mark [3] stands for this setting: short-term, duration: 28 days, gavage, M, Sprague-Dawley, Food Consumption: decrease + Hematology: RBC decrease, Hct decrease1000 Hgb decrease1000 Plt increase, PT increase, APTT increase, Ret ….
[4] abbreviates: subchronic, gavage, M, Sprague-Dawley, Clinical Observation: Salivation + Urinalysis: Tubular epithelial cell in sediment + Hematology: PT increase, APTT increase + Blood ….
Where [5] appears, read: subchronic, gavage, M, Sprague-Dawley, Deaths + Clinical Observation: Salivation + Body Weight Changes: Body weight gain decrease + Food Consumption: decrease + Urinalysis: Brown ….

As for `O=C(O)c1cccnc1Cl` [3-Carboxy-2-chloropyridine], under “short-term, duration: 28 days, gavage, M/F, Clinical Observation: Alopecia Salivation + Blood Chemistry: GOT increase, GPT increase, ALP increase, BUN increase + Necropsy: Liver - …”, the NOEL amounted to 10 mg/kg-day. On to `Nc1cccc(Cl)c1` [3-Chloroaniline], for which the NOEL (subchronic, gavage, M/F, Fischer 344, Deaths + Clinical Observation: Bluish discoloration of the genital and footpad regions + Body Weight Changes: decrease + Hematology: Hct …) is less than 10 mg/kg-day.

Regarding `Cl.Cl.Nc1ccc(Cc2ccc(N)cc2)cc1` [4,4'-Methylenedianiline dihydrochloride], the NOEL (subchronic, duration: 13 weeks, water, M/F, Fischer 344, Body Weight Changes: decrease + Histopathology: Liver/bile duct- Hyperplasia Thyroid-Adenomatous goiter Thyroid-Follicullar-cell hyperplasia…) came to 30.4 mg/kg-day. With `Nc1ccc(Cl)cc1[N+](=O)[O-]` [4-Chloro-2-nitroaniline], the NOEL (subchronic, gavage, M, Sprague-Dawley, Hematology: Hct decrease, Ret increase + Relative Organ Weight: Heat increase, Liver increase, Kidneys increase, Adrenals increase + …) was 10 mg/kg-day.

For `COc1ccc(N)c([N+](=O)[O-])c1` [4-Methoxy-2-nitroaniline], where the note is “subchronic, gavage, M, Sprague-Dawley, Clinical Observation: Orangish urine Soiled fur Salivation + Body Weight Changes: decrease(trend) + Food Consumption: decrease + Absolute …”, the NOEL is less than 12.5 mg/kg-day. As for `Cc1ccc(O)c([N+](=O)[O-])c1` [4-Methyl-2-nitrophenol], for the setting “short-term, duration: 28 days, gavage, F, Sprague-Dawley, Clinical Observation: Sedation Ptosis Salivation Reddish tear Soiled perineal region + Urinalysis: Yellow colored urine pH decrease + …”, the NOAEL was 60 mg/kg-day. Also, the NOEL (short-term, duration: 28 days, gavage, M/F, Sprague-Dawley, Clinical Observation: Sedation Ptosis Salivation Reddish tear Soiled perineal region + Urinalysis: Yellow colored urine pH decrease + …) turned out to be 60 mg/kg-day.

On to `Cc1cnc[nH]1` [4-Methylimidazole], for which the NOEL (subchronic, diet, M/F, Fischer 344, Deaths + Body Weight Changes: decrease + Hematology: Hct decrease, Hgb decrease, Ret decrease, Plt decrease, RBC decrease + Blood Chemistry…) was less than 60 mg/kg-day. On to `C=Cc1ccc(OC(C)(C)C)cc1` [4-tert-Butoxystyrene], for which the NOEL (short-term, duration: 28 days, gavage, M/F, Deaths + Clinical Observation: Salivation + Body Weight Changes: Body weight gain decrease + Food Consumption: decrease + Urinalysis: Urine…) was 20 mg/kg-day.

For the molecule `CC(C)(C)c1ccc(O)c(O)c1` [4-tert-Butylcatechol], the NOEL (subchronic, diet, M/F, Fischer 344, Body Weight Changes: decrease + Food Consumption: decrease + Hematology: Hct decrease, Hgb decrease, RBC decrease + Blood Chemistry: ALT …) was less than 75 mg/kg-day.

Turning to `Nc1ccc(O)c(C(=O)O)c1` [5-Aminosalicylic acid], the no observed adverse effect level (NOAEL) is 100 mg/kg-day (chronic, duration: 91 days, gavage, F, Sprague-Dawley, Deaths + Urinalysis: Volume increase, Specific gravity decrease, Occult blood Na decrease, K decrease, Cl decrease + Hematology: RBC …) and 100 mg/kg-day (chronic, duration: 91 days, gavage, M, Sprague-Dawley, Deaths + Urinalysis: Volume increase, Specific gravity decrease, Occult blood Na decrease, K decrease, Cl decrease + Hematology: RBC …). On to `CCc1ccc(C)nc1` [5-Ethyl-2-methylpyridine], for which the NOAEL (short-term, duration: 28 days, gavage, M/F, Sprague-Dawley, Body Weight Changes: decrease + Food Consumption: decrease + Blood Chemistry: BUN increase, CRE increase, AST increase + Relative Organ …) worked out at 30 mg/kg-day. For the molecule `CCCCCc1ccc2c(c1)C(=O)c1ccccc1C2=O` [9,10-Anthracenedione, 2-pentyl-], for the setting “short-term, duration: 28 days, gavage, F, Sprague-Dawley, Clinical Observation: Salivation (transient) + Hematology: RBC decrease, PT increase + Absolute Organ Weight: Liver increase + Relative …”, the NOEL was found to be 15 mg/kg-day.

Take `NCCCCCCCCCCC(=O)O` [11-Aminoundecanoic acid]: the NOEL (subchronic, duration: 13 weeks, diet, M/F, Fischer 344, Deaths + Histopathology: Kidney - mineralization Kidney - transitional-cell hyperplasia Kidney/renal pelvis - hyperplasia) is less than 864 mg/kg-day. Regarding `CC1(C)CC(=O)CC(C)(C)N1[O]` [(2,2,6,6-Tetramethyl-4-oxopiperidin-1-yl)oxidanyl], the NOEL (short-term, duration: 28 days, gavage, M/F, Clinical Observation: Salivation + Hematology: Trend of Anemia + Absolute Organ Weight: Spleen increase, Liver increase + Histopathology: …) worked out at 40 mg/kg-day.

As to `BrC=Cc1ccccc1` [(2-Bromovinyl)benzene], the NOEL (short-term, duration: 28 days, gavage, M/F, CD(SD), Deaths + Clinical Observation: Salivation + Urinalysis: Volume increase, Osmotic pressure decrease, Small epidermal cell + Blood Chemistry: …) came to 30 mg/kg-day. Consider `C[C@H](CCc1ccccc1)NC[C@H](O)c1ccc(O)c(C(N)=O)c1.Cl` [(R,R)-Dilevalol hydrochloride], for which, for the setting “subchronic, duration: 90 days, gavage, M/F, Sprague-Dawley, Clinical Observation: Salivation + Body Weight Changes: body weight gain decrease + Urinalysis: Volume increase, Specific gravity decrease…”, the NOEL was 60 mg/kg-day. On to `CC(=O)N(C)c1ccccc1` [Acetamide, N-methyl-N-phenyl-], for which, where the note is “short-term, duration: 28 days, gavage, M/F, Sprague-Dawley, Deaths + Clinical Observation: Clonic convulsion Cyanosis Salivation Rearing decrease + Body Weight Changes: decrease + Food Consumption: …”, the NOEL is less than 20 mg/kg-day. As to `C=CCOC(C)=O` [Allyl acetate], for the setting “subchronic, gavage, M/F, Fischer 344, Deaths + Body Weight Changes: decrease + Hematology: Hgb decrease, Plt increase, WBC increase + Blood Chemistry: TP decrease, Alb decrease, …”, the NOEL was less than 6 mg/kg-day.

Consider `O=C1c2ccccc2C(=O)c2ccccc21` [Anthraquinone], for which, under setting [1], the NOAEL was less than 200 mg/kg-day and the NOEL was less than 200 mg/kg-day. As for `COC(=O)C1=C(C)NC(C)=C(C(=O)OCC(C)=O)C1c1ccccc1[N+](=O)[O-]` (stereo not drawn) [Aranidipine], for the setting “chronic, duration: 91 days, gavage, M/F, Wistar, Deaths + Clinical Observation: Prone position.0 (Dead animal) Hypothermia.0 (Dead animal) Rough respiration Locomotor activity decrease …”, the NOEL is 3 mg/kg-day. Regarding `O=C1c2ccccc2-c2cccc3cccc1c23` [Benz[de]anthracen-7-one], under setting [2], the lowest observed adverse effect level (LOAEL) is 60 mg/kg-day, the LOEL is 60 mg/kg-day, the NOAEL came out at 15 mg/kg-day and the NOEL was determined as 15 mg/kg-day. Moreover, under setting [3], the LOAEL turned out to be 60 mg/kg-day, the LOEL came out at 60 mg/kg-day, the NOAEL was determined as 15 mg/kg-day and the NOEL was 15 mg/kg-day.

As for `Nc1ccc(Cc2ccc(N)c(Cl)c2Cl)c(Cl)c1Cl` [Benzenamine, 4,4'-methylenebis(2,3-dichloro-], under “short-term, duration: 28 days, gavage, M/F, Sprague-Dawley, Deaths + Hematology: WBC increase + Blood Chemistry: Alpha 1-globirin, level decrease, K increasemg/kg/ , TG increase/ + Relative Organ …”, the NOEL came out at 100 mg/kg-day.

As to `ClCc1ccc(Cl)c(Cl)c1` [Benzene, 1,2-dichloro-4-(chloromethyl)-], the NOEL (short-term, duration: 28 days, gavage, M/F, CD(SD), Deaths + Urinalysis: Volume, urinary cast increase, Epithelial cell increase + Absolute Organ Weight: Kidney increase, Liver increase + …) was less than 10 mg/kg-day. With `FC(F)(F)c1cccc(C(F)(F)F)c1` [Benzene, 1,3-bis(trifluoromethyl)-], under setting [4], the no observed adverse effect level (NOAEL) was 150 mg/kg-day and the NOEL is less than 40 mg/kg-day.

As for `Cc1cc(Cl)ccc1Cl` [Benzene, 1,4-dichloro-2-methyl-], where the note is “subchronic, gavage, M, Sprague-Dawley, Clinical Observation: White turbid urine Salivation + Absolute Organ Weight: Kidney increase + Relative Organ Weight: Kidney increase, R”, the NOEL came to 30 mg/kg-day.

In the case of `O=C(OOC(=O)c1ccccc1)c1ccccc1` [Benzoyl peroxide], the NOAEL (short-term, duration: 28 days, gavage, M, Sprague-Dawley, Absolute Organ Weight: Testes decrease + Relative Organ Weight: Testes decrease, Epididymis decrease + Histopathology: Testes: Degeneration) came out at 500 mg/kg-day. With `CCCCCCCC[N+](C)(C)Cc1ccccc1.[Cl-]` [Benzyldimethyloctylammonium chloride], under setting [5], the no observed adverse effect level (NOAEL) amounted to 15 mg/kg-day and the NOEL came to 15 mg/kg-day. Regarding `C[N+](C)(C)CC(=O)[O-]` [Betaine], the NOEL (subchronic, diet, M/F, Sprague-Dawley, Food Consumption: decrease + Urinalysis: Urine volume increase,pH decrease + Hematology: Plt increase, Fib increase + Blood Chemistry: Alp …) was less than 1%.

As to `COc1ccc(CCNCC(O)COc2cccc(C)c2)cc1OC.Cl` (stereo not drawn) [Bevantolol hydrochloride], the NOEL (chronic, duration: 91 days, gavage, M/F, CD, Deaths + Clinical Observation: Salivation Sedation Ptosis Prone position Lateral position Crouching position Convulsion Incontinence of …) turned out to be 60 mg/kg-day. Consider `ClC(COCC(Cl)C(Cl)(Cl)Cl)C(Cl)(Cl)Cl` (stereo not drawn) [Bis(2,3,3,3-tetrachloropropyl) ether], for which the NOEL (subchronic, gavage, M/F, Wistar, Clinical Observation: Lethargy + Body Weight Changes: decrease + Urinalysis: Ketone body increase, TP increase + Hematology: Hgb decrease, …) was 40 mg/kg-day. Consider `CCC[CH2][Sn]([Cl])([Cl])[Cl]` [Butyltin trichloride], for which the no observed adverse effect level (NOAEL) (subchronic, duration: 13 weeks, diet, M/F, Wistar, Urinalysis: pH increase + Hematology: WBC increase, Lymph increase + Blood Chemistry: ALP increase, ASAT increase, GGT increase, A/G …) came out at 144 mg/kg-day. Take `COc1cc(-c2ccc(N=Nc3c(S(=O)(=O)[O-])cc4cc(S(=O)(=O)[O-])cc(N)c4c3O)c(OC)c2)ccc1N=Nc1c(S(=O)(=O)[O-])cc2cc(S(=O)(=O)[O-])cc(N)c2c1O.[Na+].[Na+].[Na+].[Na+]` [C.I. Direct Blue 15]: the NOEL is 380 mg/kg-day (subchronic, duration: 13 weeks, drinking water, F, Fischer 344, Deaths + Body Weight Changes: decrease + Water Consumption: decrease + Absolute Organ Weight: Kidney increase + Relative Organ Weight: …) and less than 190 mg/kg-day (subchronic, duration: 13 weeks, drinking water, M, Fischer 344, Deaths + Body Weight Changes: decrease + Water Consumption: decrease + Absolute Organ Weight: Kidney increase + Relative Organ Weight: …). Consider `Nc1cc(S(=O)(=O)[O-])cc2cc(S(=O)(=O)[O-])c(N=Nc3ccc(-c4ccc(N=Nc5c(S(=O)(=O)[O-])cc6cc(S(=O)(=O)[O-])cc(N)c6c5[O-])c([O-])c4)cc3[O-])c([O-])c12.[Cu+2].[Cu+2].[Na+].[Na+].[Na+].[Na+]` [C.I. Direct Blue 218], for which the NOEL (subchronic, duration: 13 weeks, diet, F, Fischer 344, Body Weight Changes: decrease + Food Consumption: decrease + Hematology: Hct decrease, Hgb decrease + Blood Chemistry: ALT increase, , SDH …) was found to be 200 mg/kg-day and the NOEL (subchronic, duration: 13 weeks, diet, M/F, Fischer 344, Body Weight Changes: decrease + Food Consumption: decrease + Hematology: Hct decrease, Hgb decrease + Blood Chemistry: ALT increase, , SDH …) is less than 288 mg/kg-day. For the molecule `O=C(O)C1C(C(=O)O)C2(Cl)C(Cl)=C(Cl)C1(Cl)C2(Cl)Cl` (stereo not drawn) [Chlorendic acid], the NOEL (subchronic, duration: 13 weeks, diet, M/F, Fischer 344, Body Weight Changes: decrease + Histopathology: Liver-Cytomegaly Liver/bile duct -Hyperplasia Liver-Mitotic alteration) is less than 59.5 mg/kg-day.

The term NOAEL denotes the highest tested level that showed no adverse finding. In general, LOAEL refers to the lowest tested level that showed an adverse finding.
